Experimental data: patent US20220118117A1, “MODULATORS OF METABOTROPIC GLUTAMATE RECEPTOR 4” (The General Hospital Corporation, priority 2019, published 2022)

Legend:
[1] = ex vivo biodistribution of [18F]15; assay type: in vivo, Sprague Dawley rats; conditions: rat, iv
Description: Ex vivo Studies of Biodistribution. For biodistribution studies the normal male Sprague Dawley rats were anesthetized with isoflurane/nitrous oxide (1-1.5% isoflurane) to install catheter into the tail vain for administration of radioactivity ([^18F]15, 22±3 MBq, iv). Total of 15 rats in deep anesthesia (isoflurane 4% and cervical dislocation) were sacrificed in a group of three at five different time points (5, 10, 20, 30, and 60 min) after injection of [^18F]15. Major organs including lung, heart, liver, spleen, kidney, muscle, midbrain, cortex, cerebellum and blood were harvested to determine radioactivity. The tissue samples were weighted, and the radioactivity was measured with the standard samples of [^18F]15 using Wizard2 2480, Perkin Elmer, Calif. Radioactivity of the tissue samples was determined as percent of the injected activity per gram of the tissue.

[2] = PET imaging of [18F]15, baseline; assay type: in vivo, Sprague Dawley rats
Description: PET Imaging of [^18F]15 in Rats. Altogether 24 normal male Sprague Dawley rats were used for the imaging studies comprising 15 baseline studies and 15 blocking studies. Rats were anaesthetized with isoflurane/nitrous oxide (1.0-1.5% isoflurane, with oxygen flow of 1-1.5 L/min), and catheter was installed into tail vein for the administration of [^18F]15. Dynamic volumetric PET data was acquired with a PET-CT scanner for 60 min (Triumph-II, Tri-Foil Imaging, Northridge, Calif.). The vital signals such as heart rate and respiration rate were monitored during scanning period. PET data acquisition was started immediately after administration of radioactivity with the dose range of 18-34 MBq depending on the size of the rat followed by CT imaging to obtain anatomical information and data for attenuation correction of PET data. PET data was processed by using maximum-likelihood expectation-maximization (MLEM) algorithm with 30 iterations to dynamic volumetric images, and corrected for uniformity, scatter, and attenuation. The CT data was processed by the modified Feldkamp algorithm using matrix volumes of 512×512×512 and pixel size of […]. Co-registration of CT and PET images and analysis of PET images were carried out using PMOD3.2 software (PMOD Technology, Zurich, Switzerland).

[2H]C([2H])([18F])Sc1cc(NC(=O)c2ccccn2)ccc1Cl [[^18F]15]
accumulation in brain ([1]; at 10 min): 0.41±0.18 % ID/g | accumulation in heart ([1]; at 20 min): 0.50±0.08 % ID/g | accumulation in liver ([1]; at 20 min): 1.33±0.12 % ID/g | accumulation in lungs ([1]; at 20 min): 0.58±0.17 % ID/g | accumulation in kidneys ([1]; at 30 min): 0.93±0.57 % ID/g | BBB crossing ([2]; PET, rat brain): crosses BBB | time of highest accumulation in the thalamus ([2]; after administration of the ligand): about 2 min | maximum average uptake in the thalamus ([2]; time interval of 1-10 min after administering): 1.77±0.26 % ID/cc
